Source: patent US6737383B1, “Herbicidal oxadiazolidines” (priority 1999, dated 2004)

How the values were obtained:
rape = assay: Test B pre/postemergence rape; format: in vivo, Brassica napus
How it was run: (§1)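 Response is a visual 0-to-10 score relative to untreated plants, where 0 means no effect and 10 means complete control, taken twelve to sixteen days after application. Treatments went onto soil at planting and onto foliage of 1- to 4-leaf plants, using a surfactant-containing non-phytotoxic solvent.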

bedstraw = assay: Test B pre/postemergence bedstraw; format: in vivo, Galium aparine
How it was run: as §1

smallflower flatsedge = assay: Test B flood test smallflower flatsedge; format: in vivo, Cyperus difformis
How it was run: (§2)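 Plants were grown to the 2-leaf stage before treatment with test chemical, then held in a greenhouse for twelve to sixteen days. Injury was visually rated against untreated controls on a 0–10 scale, where 0 is no effect and 10 is complete control.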

corn = assay: Test B pre/postemergence corn; format: in vivo, Zea mays
How it was run: as §1

duck salad = assay: Test B flood test duck salad; format: in vivo, Heteranthera limosa
How it was run: as §2

sugar beet = assay: Test B pre/postemergence sugar beet; format: in vivo, Beta vulgaris
How it was run: as §1

blackgrass = assay: Test B pre/postemergence blackgrass; format: in vivo, Alopecurus myosuroides
How it was run: as §1

giant foxtail = assay: Test B pre/postemergence giant foxtail; format: in vivo, Setaria faberii
How it was run: as §1

purple nutsedge = assay: Test B pre/postemergence purple nutsedge; format: in vivo, Cyperus rotundus
How it was run: as §1

rice = assay: Test B flood test rice; format: in vivo, Oryza sativa
How it was run: as §2

surinam grass = assay: Test B pre/postemergence surinam grass; format: in vivo, Brachiaria decumbens
How it was run: as §1

velvetleaf = assay: Test B pre/postemergence velvetleaf; format: in vivo, Abutilon theophrasti
How it was run: as §1

crabgrass = assay: Test B pre/postemergence crabgrass; format: in vivo, Digitaria sanguinalis
How it was run: as §1

wild oat = assay: Test B pre/postemergence wild oat; format: in vivo, Avena fatua
How it was run: as §1

bamyardgrass = assay: Test B flood test barnyardgrass; format: in vivo, Echinochloa crus-galli
How it was run: as §2

wheat = assay: Test B pre/postemergence wheat; format: in vivo, Triticum aestivum
How it was run: as §1

[1] = Postemergence, Rate 62 g/ha, scale 0 to 10, 0 is no effect, 10 is complete control
[2] = Postemergence, Rate 250 g/ha, scale 0 to 10, 0 no effect, 10 complete control
[3] = Preemergence, Rate 31 g/ha, visual rating, scale 0 to 10 (0 no effect, 10 complete control)
[4] = Preemergence, Rate 62 g/ha, scale 0 to 10, 0 is no effect, 10 is complete control
[5] = Preemergence, Rate 125 g/ha, scale 0 to 10 (0 no effect, 10 complete control)
[6] = Preemergence, Rate 250 g/ha, scale of 0 to 10 where 0 is no effect and 10 is complete control
[7] = Rate 31 g/ha, Postemergence, scale 0 to 10
[8] = Rate 125 g/ha, Postemergence, scale 0 to 10, 0 no effect, 10 complete control
[9] = Rate 125 g/ha, Postemergence section (flood test species), scale 0 to 10, 0 no effect, 10 complete control
[10] = flood test, listed under Postemergence, Rate 250 g/ha, scale 0 to 10, 0 no effect, 10 complete control
[11] = Rate 500 g/ha, Postemergence section of Table B, 0 to 10 scale (0 no effect, 10 complete control)

With COc1ccc(-n2c(=O)on(C(=O)N(c3ccc(F)cc3)C(C)C)c2=O)c(OC)c1 [Compound 33] the “Rape plant response rating” value (rape; [1]) was 0, the “Rape plant response rating” value (rape; [2]) was 3 and the “Rape plant response rating” value (rape; [3]) was 0. For the same compound, the “Plant response rating, Rape” value (rape; [4]) was 0, the “Plant response rating, Rape” value (rape; [5]) was 0 and the “Plant response rating, Rape” value (rape; [6]) was 0. The “Rape plant response rating” value (rape; [7]) was 0, the “Rape plant response rating” value (rape; [8]) was 0 and the “Bedstraw plant response rating” value (bedstraw; [1]) was 0. For the same compound, the “Bedstraw plant response rating” value (bedstraw; [2]) was 2, the “Bedstraw plant response rating” value (bedstraw; [3]) was 0 and the “Plant response rating, Bedstraw” value (bedstraw; [4]) was 0. The “Plant response rating, Bedstraw” value (bedstraw; [5]) was 0, the “Plant response rating, Bedstraw” value (bedstraw; [6]) was 0 and the “Bedstraw plant response rating” value (bedstraw; [7]) was 0. For the same compound, the “Bedstraw plant response rating” value (bedstraw; [8]) was 1, the “S. Flatsedge plant response rating” value (smallflower flatsedge; [1]) was 0 and the “S. Flatsedge plant response rating” value (smallflower flatsedge; [9]) was 0. The “S. Flatsedge plant response rating” value (smallflower flatsedge; [10]) was 2, the “Corn plant response rating” value (corn; [1]) was 0 and the “Corn plant response rating” value (corn; [2]) was 0. The “Corn plant response rating” value (corn; [3]) was 0, the “Plant response rating, Corn” value (corn; [4]) was 0 and the “Plant response rating, Corn” value (corn; [5]) was 0. For the same compound, the “Plant response rating, Corn” value (corn; [6]) was 0, the “Corn plant response rating” value (corn; [7]) was 0 and the “Corn plant response rating” value (corn; [8]) was 0. The “Ducksalad plant response rating” value (duck salad; [1]) was 0, the “Ducksalad plant response rating” value (duck salad; [9]) was 0 and the “Ducksalad plant response rating” value (duck salad; [11]) was 0. The “Ducksalad plant response rating” value (duck salad; [10]) was 0, the “Sugarbeets plant response rating” value (sugar beet; [1]) was 0 and the “Sugarbeets plant response rating” value (sugar beet; [2]) was 6. For the same compound, the “Sugarbeets plant response rating” value (sugar beet; [3]) was 0, the “Plant response rating, Sugarbeets” value (sugar beet; [4]) was 0 and the “Plant response rating, Sugarbeets” value (sugar beet; [5]) was 0. For the same compound, the “Plant response rating, Sugarbeets” value (sugar beet; [6]) was 0, the “Sugarbeets plant response rating” value (sugar beet; [8]) was 2 and the “Blackgrass plant response rating” value (blackgrass; [1]) was 4. For the same compound, the “Blackgrass plant response rating” value (blackgrass; [2]) was 5, the “Blackgrass plant response rating” value (blackgrass; [3]) was 0 and the “Plant response rating, Blackgrass” value (blackgrass; [4]) was 0. The “Plant response rating, Blackgrass” value (blackgrass; [5]) was 0, the “Plant response rating, Blackgrass” value (blackgrass; [6]) was 0 and the “Blackgrass plant response rating” value (blackgrass; [7]) was 3. For the same compound, the “Blackgrass plant response rating” value (blackgrass; [8]) was 5, the “Giant foxtail plant response rating” value (giant foxtail; [1]) was 0 and the “Giant foxtail plant response rating” value (giant foxtail; [2]) was 3. For the same compound, the “Giant foxtail plant response rating” value (giant foxtail; [3]) was 3, the “Plant response rating, Giant foxtail” value (giant foxtail; [4]) was 4 and the “Plant response rating, Giant foxtail” value (giant foxtail; [5]) was 6. For the same compound, the “Plant response rating, Giant foxtail” value (giant foxtail; [6]) was 9, the “Giant foxtail plant response rating” value (giant foxtail; [7]) was 0 and the “Giant foxtail plant response rating” value (giant foxtail; [8]) was 1. The “Nutsedge plant response rating” value (purple nutsedge; [1]) was 0, the “Nutsedge plant response rating” value (purple nutsedge; [2]) was 0 and the “Nutsedge plant response rating” value (purple nutsedge; [3]) was 0. For the same compound, the “Plant response rating, Nutsedge” value (purple nutsedge; [4]) was 0, the “Plant response rating, Nutsedge” value (purple nutsedge; [5]) was 0 and the “Plant response rating, Nutsedge” value (purple nutsedge; [6]) was 0. The “Nutsedge plant response rating” value (purple nutsedge; [7]) was 0, the “Nutsedge plant response rating” value (purple nutsedge; [8]) was 0 and the “Rice plant response rating” value (rice; [1]) was 0. For the same compound, the “Rice plant response rating” value (rice; [9]) was 0, the “Rice plant response rating” value (rice; [11]) was 4 and the “Rice plant response rating” value (rice; [10]) was 2. For the same compound, the “B. signalgrass plant response rating” value (surinam grass; [1]) was 0, the “B. signalgrass plant response rating” value (surinam grass; [2]) was 1 and the “B. signalgrass plant response rating” value (surinam grass; [3]) was 0. For the same compound, the “Plant response rating, B. signalgrass” value (surinam grass; [4]) was 0, the “Plant response rating, B. signalgrass” value (surinam grass; [5]) was 0 and the “Plant response rating, B. signalgrass” value (surinam grass; [6]) was 7. The “B. signalgrass plant response rating” value (surinam grass; [7]) was 0, the “B. signalgrass plant response rating” value (surinam grass; [8]) was 0 and the “Velvetleaf plant response rating” value (velvetleaf; [1]) was 0. The “Velvetleaf plant response rating” value (velvetleaf; [2]) was 2, the “Velvetleaf plant response rating” value (velvetleaf; [3]) was 0 and the “Plant response rating, Velvetleaf” value (velvetleaf; [4]) was 0. The “Plant response rating, Velvetleaf” value (velvetleaf; [5]) was 0, the “Plant response rating, Velvetleaf” value (velvetleaf; [6]) was 0 and the “Velvetleaf plant response rating” value (velvetleaf; [8]) was 1. The “Crabgrass plant response rating” value (crabgrass; [1]) was 1, the “Crabgrass plant response rating” value (crabgrass; [2]) was 2 and the “Crabgrass plant response rating” value (crabgrass; [3]) was 3. The “Plant response rating, Crabgrass” value (crabgrass; [4]) was 3, the “Plant response rating, Crabgrass” value (crabgrass; [5]) was 3 and the “Plant response rating, Crabgrass” value (crabgrass; [6]) was 7. For the same compound, the “Crabgrass plant response rating” value (crabgrass; [7]) was 0, the “Crabgrass plant response rating” value (crabgrass; [8]) was 2 and the “Wild oats plant response rating” value (wild oat; [1]) was 0. For the same compound, the “Wild oats plant response rating” value (wild oat; [2]) was 1, the “Wild oats plant response rating” value (wild oat; [3]) was 0 and the “Plant response rating, Wild oats” value (wild oat; [5]) was 2. For the same compound, the “Plant response rating, Wild oats” value (wild oat; [6]) was 2, the “Wild oats plant response rating” value (wild oat; [8]) was 0 and the “Barnyardgrass plant response rating” value (bamyardgrass; [1]) was 0. For the same compound, the “Barnyardgrass plant response rating” value (bamyardgrass; [9]) was 0, the “Barnyardgrass plant response rating” value (bamyardgrass; [11]) was 6 and the “Barnyardgrass plant response rating” value (bamyardgrass; [10]) was 3. The “Wheat plant response rating” value (wheat; [1]) was 0, the “Wheat plant response rating” value (wheat; [2]) was 0 and the “Wheat plant response rating” value (wheat; [3]) was 0. The “Plant response rating, Wheat” value (wheat; [4]) was 0, the “Plant response rating, Wheat” value (wheat; [5]) was 0 and the “Plant response rating, Wheat” value (wheat; [6]) was 0. The “Wheat plant response rating” value (wheat; [8]) was 0.
